In patent US20240018163A1, “NEW THIAZOLOPYRIMIDINONE DERIVATIVES” (Hoffmann-La Roche Inc., priority 2021, published 2024):

Tested on: mutant HTT protein (mHTT)
Test: Homogeneous Time Resolved Fluorescence (HTRF) assay for HTT lowering
Format: cell-based
Conditions: reduction of mHTT in Huntington patient human cells (GENEAe020-A cell line), 48 hours incubation, mean from three replicates
Method: Homogeneous Time Resolved Fluorescence for HTT lowering
The HTRF assay was adapted from Weiss et al. (Analytical Biochemistry Volume 395, Issue 1, 1 Dec. 2009, Pages 8-15 and Analytical Biochemistry Volume 410, 2011, Pages 304-306) to cells from GENEAe020-A cell line (https://hpscreg.eu/cell-line/GENEAe020-A).
Compounds were tested for the effect of mutant HTT levels in Huntington patient human cells (GENEAe020-A cell line) using Homogeneous Time Resolved Fluorescence (HTRF) directed towards mutant HTT protein (mHTT). The GENEAe020-A cell line was derived by Genea Biocells from human blastocysts of HD donors. After assessing viability, cells were plated into 384 well collagen coated plates in growth media. Once cells adhered, media was removed and test compounds dissolved in DMSO were diluted with buffer solution and added to the adherent cells. Controls included experiments with no cells, DMSO with no compound, and Hsp90 inhibitor control. Cells were incubated with compounds and controls for 48 hours. Then, the cells were lysed and transferred to an assay plate containing HTRF labeled monoclonal antibodies developed by Paul Patterson (Ko et al., Brain Research Bulletin, Volume 56, Numbers 3 and 4, 2001, Pages 319-329) which recognize specific areas of the HTT protein. The terbium labeled “donor” antibody (2B7) binds to the N-terminus of the HTT protein and the Alexa488 labeled “acceptor” antibody (MW1) is specific for the polyglutamine region of the protein. Binding of the acceptor labeled antibody is more efficient for the extended polyglutamine repeats of mutant HTT protein which translates into a signal boost which enables the specific measurement of mutant HTT protein level. The HTRF donor and acceptor detection reagents were incubated with the cell lysate and the ratio between the signals of the two fluorophores is indicative of the relative quantities of mHTT.

Cc1cn2nc(-c3cc(=O)n4cc(N5CCNCC5)sc4n3)cc(OC(F)F)c2n1 [Example 27, 7-[8-(difluoromethoxy)-2-methyl-imidazo[1,2-b]pyridazin-6-yl]-2-piperazin-1-yl-thiazolo[3,2-a]pyrimidin-5-one] and COc1cc(-c2cc(=O)n3cc(C4(F)CCNCC4)sc3n2)nn2cc(C)nc12 [Example 42, 2-(4-fluoro-4-piperidyl)-7-(8-methoxy-2-methyl-imidazo[1,2-b]pyridazin-6-yl)thiazolo[3,2-a]pyrimidin-5-one] are within 1.5-fold of each other in EC50: 68 nM for the first, 53 nM for the second.

Compared with Cc1nc2c(C(F)(F)F)cc(-c3cc(=O)n4cc(N5CCNCC5)sc4n3)nc2o1 [Example 28, 7-[2-methyl-7-(trifluoromethyl)oxazolo[5,4-b]pyridin-5-yl]-2-piperazin-1-yl-thiazolo[3,2-a]pyrimidin-5-one], Cc1nc2c(C)cc(-c3cc(=O)n4cc(C5CCNCC5)sc4n3)nc2o1 [Example 30, 7-(2,7-dimethyloxazolo[5,4-b]pyridin-5-yl)-2-(4-piperidyl)thiazolo[3,2-a]pyrimidin-5-one] is 17-fold lower in EC50: 691 nM for the first, 40 nM for the second. The second is the more potent here.

First: COc1cc(-c2cc(=O)n3cc(C4CCNCC4)sc3n2)nn2cc(C)nc12 [Example 29, 7-(8-methoxy-2-methyl-imidazo[1,2-b]pyridazin-6-yl)-2-(4-piperidyl)thiazolo[3,2-a]pyrimidin-5-one]
Second: COc1cc(-c2cc(=O)n3cc([C@H]4CCNC5(CC5)C4)sc3n2)nn2cc(C)nc12 [Example 40, 7-(8-methoxy-2-methyl-imidazo[1,2-b]pyridazin-6-yl)-2-[(7S)-4-azaspiro[2.5]octan-7-yl]thiazolo[3,2-a]pyrimidin-5-one]
The EC50 of the first is 2.4-fold lower: 35 nM for the first, 83 nM for the second. The first is the more potent here.

Compared with Cc1cc(-c2cc(=O)n3cc(C4CCNCC4)sc3n2)nn2cc(Cl)nc12 [Example 31, 7-(2-chloro-8-methyl-imidazo[1,2-b]pyridazin-6-yl)-2-(4-piperidyl)thiazolo[3,2-a]pyrimidin-5-one], Cc1cc(-c2cc(=O)n3cc([C@@H]4CCNC[C@@H]4F)sc3n2)nn2cc(Cl)nc12 [Example 43, 7-(2-chloro-8-methyl-imidazo[1,2-b]pyridazin-6-yl)-2-[(3R,4R)-3-fluoro-4-piperidyl]thiazolo[3,2-a]pyrimidin-5-one] is 2.1-fold higher in EC50: 71 nM for the first, 152 nM for the second. The first is the more potent here.

Going from Cc1cn2nc(-c3cc(=O)n4cc([C@@H]5CCNC[C@@H]5F)sc4n3)cc(C)c2n1 [Example 32, 7-(2,8-dimethylimidazo[1,2-b]pyridazin-6-yl)-2-[(3R,4R)-3-fluoro-4-piperidyl]thiazolo[3,2-a]pyrimidin-5-one] to Cc1cn2nc(-c3cc(=O)n4cc([C@H]5CCNC[C@H]5F)sc4n3)cc(C)c2n1 [Example 33, 7-(2,8-dimethylimidazo[1,2-b]pyridazin-6-yl)-2-[(3S,4S)-3-fluoro-4-piperidyl]thiazolo[3,2-a]pyrimidin-5-one], the EC50 rises from 33 nM to 86 nM (2.6-fold).

Going from COc1cc(-c2cc(=O)n3cc([C@@H]4CCNC[C@@H]4F)sc3n2)nn2cc(C)nc12 [Example 34, 7-(8-methoxy-2-methyl-imidazo[1,2-b]pyridazin-6-yl)-2-[(3R,4R)-3-fluoro-4-piperidyl]thiazolo[3,2-a]pyrimidin-5-one] to COc1cc(-c2cc(=O)n3cc([C@H]4CCNC[C@H]4F)sc3n2)nn2cc(C)nc12 [Example 35, 7-(8-methoxy-2-methyl-imidazo[1,2-b]pyridazin-6-yl)-2-[(3S,4S)-3-fluoro-4-piperidyl]thiazolo[3,2-a]pyrimidin-5-one], the EC50 rises from 22 nM to 61 nM (2.8-fold). The first is the more potent here.

First: Cc1cn2nc(-c3cc(=O)n4cc([C@H]5CCNC6(CC6)C5)sc4n3)cc(C)c2n1 [Example 36, 7-(2,8-dimethylimidazo[1,2-b]pyridazin-6-yl)-2-[(7S)-4-azaspiro[2.5]octan-7-yl]thiazolo[3,2-a]pyrimidin-5-one]
Second: Cc1cn2nc(-c3cc(=O)n4cc([C@@H]5CCNC6(CC6)C5)sc4n3)cc(C)c2n1 [Example 37, 7-(2,8-dimethylimidazo[1,2-b]pyridazin-6-yl)-2-[(7R)-4-azaspiro[2.5]octan-7-yl]thiazolo[3,2-a]pyrimidin-5-one]
The EC50 of the first is 2-fold lower: 55 nM for the first, 112 nM for the second.

Compared with Cc1cn2nc(-c3cc(=O)n4cc([C@@H]5CCNC[C@H]5F)sc4n3)cc(C)c2n1 [Example 38, 7-(2,8-dimethylimidazo[1,2-b]pyridazin-6-yl)-2-[(3S,4R)-3-fluoro-4-piperidyl]thiazolo[3,2-a]pyrimidin-5-one], Cc1cn2nc(-c3cc(=O)n4cc([C@H]5CCNC[C@@H]5F)sc4n3)cc(C)c2n1 [Example 39, 7-(2,8-dimethylimidazo[1,2-b]pyridazin-6-yl)-2-[(3R,4S)-3-fluoro-4-piperidyl]thiazolo[3,2-a]pyrimidin-5-one] is 5.3-fold lower in EC50: 280 nM for the first, 53 nM for the second. The second is the more potent here.

COc1cc(-c2cc(=O)n3cc([C@@H]4CCNC5(CC5)C4)sc3n2)nn2cc(C)nc12 [Example 41, 7-(8-methoxy-2-methyl-imidazo[1,2-b]pyridazin-6-yl)-2-[(7R)-4-azaspiro[2.5]octan-7-yl]thiazolo[3,2-a]pyrimidin-5-one] and COc1cc(-c2cc(=O)n3cc([C@@H]4CCNC[C@H]4F)sc3n2)nn2cc(C)nc12 [Example 45, 7-(8-methoxy-2-methyl-imidazo[1,2-b]pyridazin-6-yl)-2-[(3S,4R)-3-fluoro-4-piperidyl]thiazolo[3,2-a]pyrimidin-5-one] are within 1.5-fold of each other in EC50: 106 nM for the first, 97 nM for the second.

Cc1nc2c(C)cc(-c3cc(=O)n4cc([C@@H]5CCNC[C@@H]5F)sc4n3)nc2o1 [Example 44, 7-(2,7-dimethyloxazolo[5,4-b]pyridin-5-yl)-2-[(3R,4R)-3-fluoro-4-piperidyl]thiazolo[3,2-a]pyrimidin-5-one] and COc1cc(-c2cc(=O)n3cc([C@H]4CCNC[C@@H]4F)sc3n2)nn2cc(C)nc12 [Example 46, 7-(8-methoxy-2-methyl-imidazo[1,2-b]pyridazin-6-yl)-2-[(3R,4S)-3-fluoro-4-piperidyl]thiazolo[3,2-a]pyrimidin-5-one] are within 1.5-fold of each other in EC50: 59 nM for the first, 69 nM for the second.

Compared with Cc1cn2nc(-c3cc(=O)n4cc([C@H]5C[C@H]6CNC[C@@H](C5)O6)sc4n3)cc(C)c2n1 [Example 47, 7-(2,8-dimethylimidazo[1,2-b]pyridazin-6-yl)-2-[rac-(1R,5S)-9-oxa-3-azabicyclo[3.3.1]nonan-7-yl]thiazolo[3,2-a]pyrimidin-5-one], COc1cc(-c2cc(=O)n3cc([C@H]4C[C@H]5CNC[C@@H](C4)O5)sc3n2)nn2cc(C)nc12 [Example 49, 7-(8-methoxy-2-methyl-imidazo[1,2-b]pyridazin-6-yl)-2-[rac-(1R,5S)-9-oxa-3-azabicyclo[3.3.1]nonan-7-yl]thiazolo[3,2-a]pyrimidin-5-one] is 1.6-fold lower in EC50: 330 nM for the first, 200 nM for the second. The second is the more potent here.

First: Cc1cn2nc(-c3cc(=O)n4cc([C@H]5C[C@H]6CNC[C@@H](C5)O6)sc4n3)cc(C)c2n1 [Example 48, 7-(2,8-dimethylimidazo[1,2-b]pyridazin-6-yl)-2-[rac-(1S,5R)-9-oxa-3-azabicyclo[3.3.1]nonan-7-yl]thiazolo[3,2-a]pyrimidin-5-one]
Second: COc1cc(-c2cc(=O)n3cc([C@H]4C[C@H]5CNC[C@@H](C4)O5)sc3n2)nn2cc(C)nc12 [Example 50, 7-(8-methoxy-2-methyl-imidazo[1,2-b]pyridazin-6-yl)-2-[rac-(1S,5R)-9-oxa-3-azabicyclo[3.3.1]nonan-7-yl]thiazolo[3,2-a]pyrimidin-5-one]
The EC50 of the first is 1.6-fold higher: 92 nM for the first, 57 nM for the second. The second is the more potent here.

Cc1cn2nc(-c3cc(=O)n4cc([C@H]5[C@@H]6CNC[C@@H]65)sc4n3)cc(C)c2n1 [Example 55, 7-(2,8-dimethylimidazo[1,2-b]pyridazin-6-yl)-2-[rac-(1S,5R)-3-azabicyclo[3.1.0]hexan-6-yl]thiazolo[3,2-a]pyrimidin-5-one] and COc1cc(-c2cc(=O)n3cc([C@]4(F)CCNC[C@H]4F)sc3n2)nn2cc(C)nc12 [Example 56, 7-(8-methoxy-2-methyl-imidazo[1,2-b]pyridazin-6-yl)-2-[(3R,4S)-3,4-difluoro-4-piperidyl]thiazolo[3,2-a]pyrimidin-5-one] are within 1.5-fold of each other in EC50: 65 nM for the first, 50 nM for the second.

Compared with COc1cc(-c2cc(=O)n3cc([C@]4(F)CCNC[C@@H]4F)sc3n2)nn2cc(C)nc12 [Example 57, 7-(8-methoxy-2-methyl-imidazo[1,2-b]pyridazin-6-yl)-2-[(3S,4S)-3,4-difluoro-4-piperidyl]thiazolo[3,2-a]pyrimidin-5-one], COc1cc(-c2cc(=O)n3cc([C@@]4(F)CCNC[C@H]4F)sc3n2)nn2cc(C)nc12 [Example 58, 7-(8-methoxy-2-methyl-imidazo[1,2-b]pyridazin-6-yl)-2-[(3R,4R)-3,4-difluoro-4-piperidyl]thiazolo[3,2-a]pyrimidin-5-one] is 2.4-fold lower in EC50: 239 nM for the first, 99 nM for the second. The second is the more potent here.

COc1cc(-c2cc(=O)n3cc([C@@]4(F)CCNC[C@@H]4F)sc3n2)nn2cc(C)nc12 [Example 59, 7-(8-methoxy-2-methyl-imidazo[1,2-b]pyridazin-6-yl)-2-[(3S,4R)-3,4-difluoro-4-piperidyl]thiazolo[3,2-a]pyrimidin-5-one] was tested, and the EC50 was 428 nM.
